The experiment has as its target Metabotropic glutamate receptor 5 (Rattus norvegicus, UniProt P31424). The experiment in a line: mGlu5 Ca2+ Flux Assay. Here is the method: HEK 293A cells stably expressing rat mGlu5 were plated in black-walled, clear-bottomed, poly-D-lysine coated 384-well plates in 20 μL of assay medium (DMEM containing 10% dialyzed FBS, 20 mM HEPES, 100 units/mL penicillin/streptomycin plus 250 ng/mL Fungizone, and 1 mM sodium pyruvate) at a density of 20K cells/well. The cells were grown overnight at 37° C. in the presence of 5% CO2. The next day, medium was removed and the cells incubated with 20 μL of […] Fluo-4, AM prepared as a 2.3 mM stock in DMSO and mixed in a 1:1 ratio with 10% (w/v) pluronic acid F-127 and diluted in assay buffer (Hank's balanced salt solution, 20 mM HEPES, and 2.5 mM probenecid) for 45 minutes at 37° C. Dye was removed, 20 μL of assay buffer was added, and the plate was incubated for 5 minutes at room temperature.Ca2+ flux was measured using the Functional Drug Screening System (FDSS7000, Hamamatsu, Japan). After establishment of a fluorescence baseline for about 3 seconds, the compounds of the present invention were added to the cells, and the response in cells was measured. 2.3 minutes later an EC20 concentration of the mGlu5 receptor agonist glutamate was added to the cells, and the response of the cells was measured for 1.9 minutes; an EC80 concentration of agonist was added and readings taken for an additional 1.7 minutes. All test compounds were dissolved and diluted to a concentration of 10 mM in 100% DMSO. Compounds were then serially diluted 1:3 in DMSO into 10 point concentration response curves, transferred to daughter plates, and further diluted into assay buffer to a 2× stock. Calcium fluorescence measures were recorded as fold over basal fluorescence; raw data was then normalized to the maximal response to glutamate. Potentiation of the agonist response of the mGlu5 receptor in the present invention was observed as an increase in response to submaximal concentrations of glutamate in the presence of compound compared to the response to glutamate in the absence of compound. Antagonism of the agonist response of the mGlu5 receptor in the present invention was observed as a decrease in response to nearly maximal concentrations of glutamate in the presence of compound compared to the response to glutamate in the absence of compound.The raw data file containing all time points was used as the data source in the analysis template. This was saved by the FDSS as a tab-delimited text file. Data were normalized using a static ratio function (F/F0) for each measurement of the total 360 values per well divided by each well's initial value. Data were then reduced to peak amplitudes (Max−Initial Min) using a time range that starts approximately 3 seconds prior to the glutamate EC20/EC80 addition and continues for approximately 90-120 seconds. This is sufficient time to capture the peak amplitude of the cellular calcium response. Individual amplitudes were expressed as % EMax by multiplying each amplitude by 100 and then dividing the product by the mean of the amplitudes derived from the glutamate ECMax-treated wells. EC50 values for test compounds were generated by fitting the normalized values versus the log of the test compound concentration (in mol/L) using a 4 parameter logistic equation where none of the parameters were fixed. Each of the three values collected at each concentration of test compound were weighted evenly
Chain of Metabotropic glutamate receptor 5 (P31424 whole entry): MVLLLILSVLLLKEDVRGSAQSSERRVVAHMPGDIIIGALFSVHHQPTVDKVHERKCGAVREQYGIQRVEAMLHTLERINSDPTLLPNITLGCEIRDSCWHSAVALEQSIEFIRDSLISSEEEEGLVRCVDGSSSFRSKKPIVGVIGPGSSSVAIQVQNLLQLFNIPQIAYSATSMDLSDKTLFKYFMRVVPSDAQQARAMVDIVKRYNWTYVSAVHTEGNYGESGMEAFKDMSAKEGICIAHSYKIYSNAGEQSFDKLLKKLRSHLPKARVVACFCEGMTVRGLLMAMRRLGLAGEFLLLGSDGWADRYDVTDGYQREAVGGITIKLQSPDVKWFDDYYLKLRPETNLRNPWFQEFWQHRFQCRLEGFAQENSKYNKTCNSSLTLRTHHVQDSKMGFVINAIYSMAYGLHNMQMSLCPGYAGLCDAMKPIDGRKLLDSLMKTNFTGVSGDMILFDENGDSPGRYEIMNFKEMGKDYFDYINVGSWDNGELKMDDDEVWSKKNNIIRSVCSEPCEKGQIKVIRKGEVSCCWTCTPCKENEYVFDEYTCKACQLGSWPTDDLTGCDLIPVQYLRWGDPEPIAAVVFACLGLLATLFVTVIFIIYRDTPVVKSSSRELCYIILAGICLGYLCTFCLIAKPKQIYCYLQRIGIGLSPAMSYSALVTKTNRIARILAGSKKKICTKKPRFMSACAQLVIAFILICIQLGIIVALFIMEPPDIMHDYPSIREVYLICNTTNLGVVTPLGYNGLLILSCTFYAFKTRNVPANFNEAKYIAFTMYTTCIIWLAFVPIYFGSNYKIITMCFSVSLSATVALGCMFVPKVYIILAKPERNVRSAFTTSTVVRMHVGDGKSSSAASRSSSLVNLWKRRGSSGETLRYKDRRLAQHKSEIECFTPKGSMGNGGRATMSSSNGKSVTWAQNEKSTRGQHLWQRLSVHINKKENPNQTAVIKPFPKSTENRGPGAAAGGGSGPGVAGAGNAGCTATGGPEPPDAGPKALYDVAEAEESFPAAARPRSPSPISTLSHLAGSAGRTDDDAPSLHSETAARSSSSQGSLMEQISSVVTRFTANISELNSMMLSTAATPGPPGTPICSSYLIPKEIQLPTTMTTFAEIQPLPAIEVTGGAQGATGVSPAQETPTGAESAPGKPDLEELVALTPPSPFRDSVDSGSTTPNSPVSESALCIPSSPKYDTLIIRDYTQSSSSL
The IC50 is the concentration that gives 50% inhibition. As for `O=c1cc(OCCOc2cc(Cl)ccn2)ccn1-c1ccc(F)cc1` [US10399948, Compound 49], the IC50 is 8.8 µM.
As for `N#Cc1cccc(-n2ccc(OCCOc3ccccc3)cc2=O)c1` [US10399948, Compound 22], the IC50 was 6.02 µM.
As to `O=c1nc(OCCOc2ccccc2)ccn1-c1ccc(F)c(F)c1` [US10399948, Compound 15], the IC50 worked out at 0.427 µM.
Turning to `N#Cc1cc(F)cc(-n2ccc(OCCOc3ccccc3)cc2=O)c1` [US10399948, Compound 23], the IC50 worked out at 1.31 µM.
On to `O=c1nc(OCCOc2ccccc2)ccn1-c1ccc(F)cc1` [US10399948, Compound 17], for which the IC50 is 1.19 µM.
To `O=c1cc(OCCOc2ncccc2Cl)ccn1-c1ccc(F)cc1` [US10399948, Compound 54] belongs 7.82 µM.
Consider `O=c1nc(OCCOc2ccccc2)ccn1-c1cccc(F)c1` [US10399948, Compound 14], for which the IC50 stood at 3.54 µM.

The record behind these values is BindingDB's records for patent US10399948 (Vanderbilt University, 2019).
